From US8716297B2, “Chemical entities to be used for Wee1 inhibition for the treatment of cancer” (AbbVie Inc., priority 2011, dated 2014)

target: T1, GST-tagged-Wee1 kinase (Homo sapiens, UniProt P30291); experiment: Wee1 time-resolved fluorescence equilibrium binding assay (displacement of Oregon Green-labeled ATP-competitive probe); details: TR-FRET probe displacement; 2 nM GST-Wee1, 300 nM probe, 1 hour incubation; read-out: Wee-1 binding (Ki nM)
T1 construct: purchased Carnabio 05-177
Protocol: Wee1 kinase was assayed using a time-resolved fluorescence equilibrium binding assay monitoring displacement of a rapidly reversible Oregon Green-labeled ATP-competitive kinase probe (N-(2-(2-(2-(4-(4-(5-chloro-4-(2-(1-hydroxycyclobutyl)thiazol-5-yl)-1H-pyrrolo[2,3-b]pyridin-2-yl)phenyl)piperazin-1-yl)ethoxy)ethoxy)ethyl)-2′,7′-difluoro-3′,6′-dihydroxy-3-oxo-3H-spiro[isobenzofuran-1,9′-xanthene]-5-carboxamide) by competitive Wee1 inhibitors.

T1 sequence (P30291 whole entry): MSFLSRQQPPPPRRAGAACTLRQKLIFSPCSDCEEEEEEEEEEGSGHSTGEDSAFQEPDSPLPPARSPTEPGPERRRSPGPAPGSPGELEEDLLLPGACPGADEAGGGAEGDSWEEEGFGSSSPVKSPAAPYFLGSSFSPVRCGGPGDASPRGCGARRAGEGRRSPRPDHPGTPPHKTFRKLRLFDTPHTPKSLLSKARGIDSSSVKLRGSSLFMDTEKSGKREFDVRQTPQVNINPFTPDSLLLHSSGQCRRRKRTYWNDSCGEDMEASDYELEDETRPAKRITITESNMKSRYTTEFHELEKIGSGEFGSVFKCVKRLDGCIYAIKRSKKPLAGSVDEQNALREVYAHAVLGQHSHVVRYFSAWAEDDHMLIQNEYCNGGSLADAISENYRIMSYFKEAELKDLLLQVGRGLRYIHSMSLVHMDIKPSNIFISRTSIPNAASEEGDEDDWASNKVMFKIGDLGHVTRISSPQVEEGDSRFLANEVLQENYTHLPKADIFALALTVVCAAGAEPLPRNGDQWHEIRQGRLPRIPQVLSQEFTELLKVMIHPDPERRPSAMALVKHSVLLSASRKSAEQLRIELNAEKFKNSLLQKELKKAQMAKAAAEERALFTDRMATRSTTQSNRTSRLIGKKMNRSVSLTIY

Compound | Ki [nM]
C=CCN1c2ncccc2-c2nc(Nc3ccccc3)ncc2S1(=O)=O [Example 32, 6-allyl-N-phenyl-6H-pyrido[2,3-c]pyrimido[4,5-e][1,2]thiazin-2-amine 5,5-dioxide] | 1450
C=CCN1c2ncccc2-c2nc(Nc3ccc4c(c3)N(C(C)=O)CC4)ncc2S1(=O)=O [Example 35, 1-{6-[(6-allyl-5,5-dioxido-6H-pyrido[2,3-c]pyrimido[4,5-e][1,2]thiazin-2-yl)amino]-2,3-dihydro-1H-indol-1-yl}ethanone] | 48
C=CCN1c2ncccc2-c2nc(Nc3ccc4c(c3)NCCC4)ncc2S1(=O)=O [Example 38, 6-allyl-N-(1,2,3,4-tetrahydroquinolin-7-yl)-6H-pyrido[2,3-c]pyrimido[4,5-e][1,2]thiazin-2-amine 5,5-dioxide] | 51
C=CCN1c2ncccc2-c2nc(Nc3ccc(OCCN(CC)CC)cc3)ncc2S1(=O)=O [Example 39, 6-allyl-N-{4-[2-(diethylamino)ethoxy]phenyl}-6H-pyrido[2,3-c]pyrimido[4,5-e][1,2]thiazin-2-amine 5,5-dioxide] | 15
C=CCN1c2ncccc2-c2nc(Nc3ccc(N4CCN(C)CC4)c(Cl)c3)ncc2S1(=O)=O [Example 41, 6-allyl-N-[3-chloro-4-(4-methylpiperazin-1-yl)phenyl]-6H-pyrido[2,3-c]pyrimido[4,5-e][1,2]thiazin-2-amine 5,5-dioxide] | 2370
C=CCN1c2ncccc2-c2nc(Nc3ccc(C(=O)N4CCN(C)CC4)cc3)ncc2S1(=O)=O [Example 43, {4-[(6-allyl-5,5-dioxido-6H-pyrido[2,3-c]pyrimido[4,5-e][1,2]thiazin-2-yl)amino]phenyl}(4-methylpiperazin-1-yl)methanone] | 56
C=CCN1c2ncccc2-c2nc(Nc3ccc(N4CCN(C)CC4)cc3C)ncc2S1(=O)=O [Example 44, 6-allyl-N-[2-methyl-4-(4-methylpiperazin-1-yl)phenyl]-6H-pyrido[2,3-c]pyrimido[4,5-e][1,2]thiazin-2-amine 5,5-dioxide] | 487
C=CCN1c2ncccc2-c2nc(Nc3ccc4c(c3)N(C)CCC4)ncc2S1(=O)=O [Example 49, 6-allyl-N-(1-methyl-1,2,3,4-tetrahydroquinolin-7-yl)-6H-pyrido[2,3-c]pyrimido[4,5-e][1,2]thiazin-2-amine 5,5-dioxide] | 45
C=CCN1c2ncccc2-c2nc(Nc3ccc(N4CCNCC4)c(C(F)(F)F)c3)ncc2S1(=O)=O [Example 51, 6-allyl-N-[4-(piperazin-1-yl)-3-(trifluoromethyl)phenyl]-6H-pyrido[2,3-c]pyrimido[4,5-e][1,2]thiazin-2-amine 5,5-dioxide] | 14
C=CCN1c2ncccc2-c2nc(Nc3ccc(N4CCOCC4)cc3)ncc2S1(=O)=O [Example 52, 6-allyl-N-[4-(morpholin-4-yl)phenyl]-6H-pyrido[2,3-c]pyrimido[4,5-e][1,2]thiazin-2-amine 5,5-dioxide] | 12
CN1c2ccccc2-c2nc(Nc3ccc(N4CCOCC4)cc3)ncc2S1(=O)=O [Example 57, 6-methyl-N-[4-(morpholin-4-yl)phenyl]-6H-pyrimido[5,4-c][2,1]benzothiazin-2-amine 5,5-dioxide] | 12
CN1c2ccccc2-c2nc(Nc3ccc(CN4CCCC4)cc3)ncc2S1(=O)=O [Example 58, 6-methyl-N-[4-(pyrrolidin-1-ylmethyl)phenyl]-6H-pyrimido[5,4-c][2,1]benzothiazin-2-amine 5,5-dioxide] | 11
C=CCN1c2c(C(=O)O)cccc2-c2nc(Nc3ccc(N4CCN(C)CC4)cc3)ncc2S1(=O)=O [Example 59, 6-allyl-2-{[4-(4-methylpiperazin-1-yl)phenyl]amino}-6H-pyrimido[5,4-c][2,1]benzothiazine-7-carboxylic acid 5,5-dioxide] | 141
C=CCN1c2c(C(=O)NC)cccc2-c2nc(Nc3ccc(N4CCN(C)CC4)cc3)ncc2S1(=O)=O [Example 61, 6-allyl-N-methyl-2-{[4-(4-methylpiperazin-1-yl)phenyl]amino}-6H-pyrimido[5,4-c][2,1]benzothiazine-7-carboxamide 5,5-dioxide] | 11
C=CCN1c2c(C(=O)NCCO)cccc2-c2nc(Nc3ccc(N4CCN(C)CC4)cc3)ncc2S1(=O)=O [Example 62, 6-allyl-N-(2-hydroxyethyl)-2-{[4-(4-methylpiperazin-1-yl)phenyl]amino}-6H-pyrimido[5,4-c][2,1]benzothiazine-7-carboxamide 5,5-dioxide] | 37

These reach a lower Ki. Values come first.

Ki [nM] | Compound
1.7 | C=CCN1c2ccccc2-c2nc(Nc3ccc(N4CCNCC4)c(F)c3)ncc2S1(=O)=O [Example 31, 6-allyl-N-[3-fluoro-4-(piperazin-1-yl)phenyl]-6H-pyrimido[5,4-c][2,1]benzothiazin-2-amine 5,5-dioxide]
3 | C=CCN1c2ncccc2-c2nc(Nc3ccc4c(c3)CNCC4)ncc2S1(=O)=O [Example 33, 6-allyl-N-(1,2,3,4-tetrahydroisoquinolin-7-yl)-6H-pyrido[2,3-c]pyrimido[4,5-e][1,2]thiazin-2-amine 5,5-dioxide]
2 | C=CCN1c2ncccc2-c2nc(Nc3ccc(N4CCNCC4)cc3)ncc2S1(=O)=O [Example 34, 6-allyl-N-[4-(piperazin-1-yl)phenyl]-6H-pyrido[2,3-c]pyrimido[4,5-e][1,2]thiazin-2-amine 5,5-dioxide]
9 | C=CCN1c2ncccc2-c2nc(Nc3ccc(N4CCNCC4)c(F)c3)ncc2S1(=O)=O [Example 36, 6-allyl-N-[3-fluoro-4-(piperazin-1-yl)phenyl]-6H-pyrido[2,3-c]pyrimido[4,5-e][1,2]thiazin-2-amine 5,5-dioxide]
5 | C=CCN1c2ncccc2-c2nc(Nc3ccc(C4CCNCC4)cc3)ncc2S1(=O)=O [Example 37, 6-allyl-N-[4-(piperidin-4-yl)phenyl]-6H-pyrido[2,3-c]pyrimido[4,5-e][1,2]thiazin-2-amine 5,5-dioxide]
5 | C=CCN1c2ncccc2-c2nc(Nc3ccc(N4CCN(C)CC4)cc3)ncc2S1(=O)=O [Example 40, 6-allyl-N-[4-(4-methylpiperazin-1-yl)phenyl]-6H-pyrido[2,3-c]pyrimido[4,5-e][1,2]thiazin-2-amine 5,5-dioxide]
2 | C=CCN1c2ncccc2-c2nc(Nc3ccc(N4CCNCC4)c(C)c3)ncc2S1(=O)=O [Example 42, 6-allyl-N-[3-methyl-4-(piperazin-1-yl)phenyl]-6H-pyrido[2,3-c]pyrimido[4,5-e][1,2]thiazin-2-amine 5,5-dioxide]
3 | C=CCN1c2ncccc2-c2nc(Nc3ccc(C4CCNC4)cc3)ncc2S1(=O)=O (stereo not drawn) [Example 45, 6-allyl-N-[4-(pyrrolidin-3-yl)phenyl]-6H-pyrido[2,3-c]pyrimido[4,5-e][1,2]thiazin-2-amine 5,5-dioxide]
2 | C=CCN1c2ncccc2-c2nc(Nc3ccc4c(c3)CCNC4)ncc2S1(=O)=O [Example 46, 6-allyl-N-(1,2,3,4-tetrahydroisoquinolin-6-yl)-6H-pyrido[2,3-c]pyrimido[4,5-e][1,2]thiazin-2-amine 5,5-dioxide]
1.3 | C=CCN1c2ncccc2-c2nc(Nc3ccc4c(c3)CN(C)CC43CC3)ncc2S1(=O)=O [Example 47, 6-allyl-N-(2′-methyl-2′,3′-dihydro-1′H-spiro[cyclopropane-1,4′-isoquinolin]-7′-yl)-6H-pyrido[2,3-c]pyrimido[4,5-e][1,2]thiazin-2-amine 5,5-dioxide]
2 | C=CCN1c2ncccc2-c2nc(Nc3ccc(N4CCN5CCCC5C4)cc3)ncc2S1(=O)=O (stereo not drawn) [Example 48, 6-allyl-N-[4-(hexahydropyrrolo[1,2-a]pyrazin-2(1H)-yl)phenyl]-6H-pyrido[2,3-c]pyrimido[4,5-e][1,2]thiazin-2-amine 5,5-dioxide]
5 | C=CCN1c2ncccc2-c2nc(Nc3ccc(N4CCN(C)CC4)c(C)c3)ncc2S1(=O)=O [Example 50, 6-allyl-N-[3-methyl-4-(4-methylpiperazin-1-yl)phenyl]-6H-pyrido[2,3-c]pyrimido[4,5-e][1,2]thiazin-2-amine 5,5-dioxide]
1.1 | C=CCN1c2ncccc2-c2nc(Nc3ccc(N4CCCN(C)CC4)c(C)c3)ncc2S1(=O)=O [Example 53, 6-allyl-N-[3-methyl-4-(4-methyl-1,4-diazepan-1-yl)phenyl]-6H-pyrido[2,3-c]pyrimido[4,5-e][1,2]thiazin-2-amine 5,5-dioxide]
1.2 | C=CCN1c2ncccc2-c2nc(Nc3ccc4c(c3)CNCC43CC3)ncc2S1(=O)=O [Example 54, 6-allyl-N-(2′,3′-dihydro-1′H-spiro[cyclopropane-1,4′-isoquinolin]-7′-yl)-6H-pyrido[2,3-c]pyrimido[4,5-e][1,2]thiazin-2-amine 5,5-dioxide]
8 | CN1CCN(c2ccc(Nc3ncc4c(n3)-c3sccc3N(C)S4(=O)=O)cc2)CC1 [Example 55, 6-methyl-N-[4-(4-methylpiperazin-1-yl)phenyl]-6H-pyrimido[4,5-e]thieno[3,2-c][1,2]thiazin-2-amine 5,5-dioxide]
9 | CN1CCN(c2ccc(Nc3ncc4c(n3)-c3ccccc3N(C)S4(=O)=O)cc2)CC1 [Example 56, 6-methyl-N-[4-(4-methylpiperazin-1-yl)phenyl]-6H-pyrimido[5,4-c][2,1]benzothiazin-2-amine 5,5-dioxide]
9 | C=CCN1c2c(C(=O)OC)cccc2-c2nc(Nc3ccc(N4CCN(C)CC4)cc3)ncc2S1(=O)=O [Example 60, methyl 6-allyl-2-{[4-(4-methylpiperazin-1-yl)phenyl]amino}-6H-pyrimido[5,4-c][2,1]benzothiazine-7-carboxylate 5,5-dioxide]
2 | C=CCN1c2cc(Br)ccc2-c2nc(Nc3ccc(N4CCN(C)CC4)cc3)ncc2S1(=O)=O [Example 64, 6-allyl-8-bromo-N-[4-(4-methylpiperazin-1-yl)phenyl]-6H-pyrimido[5,4-c][2,1]benzothiazin-2-amine 5,5-dioxide]
